Measurements from patent publication US20030099960A1, “Compositions and methods for optimizing UGT2B7 substrate dosings and for predicting UGT2B7 substrate toxicity” (The University of Chicago, priority 2001, published 2003).

Tests used:
human UGT1A1 = molecular target: T1, human UGT1A1 (Homo sapiens, UniProt P22309); test: Epirubicin glucuronidation in microsomes expressing UGT1A1; conditions: Nd = not detectable
T1 sequence (P22309 26-533): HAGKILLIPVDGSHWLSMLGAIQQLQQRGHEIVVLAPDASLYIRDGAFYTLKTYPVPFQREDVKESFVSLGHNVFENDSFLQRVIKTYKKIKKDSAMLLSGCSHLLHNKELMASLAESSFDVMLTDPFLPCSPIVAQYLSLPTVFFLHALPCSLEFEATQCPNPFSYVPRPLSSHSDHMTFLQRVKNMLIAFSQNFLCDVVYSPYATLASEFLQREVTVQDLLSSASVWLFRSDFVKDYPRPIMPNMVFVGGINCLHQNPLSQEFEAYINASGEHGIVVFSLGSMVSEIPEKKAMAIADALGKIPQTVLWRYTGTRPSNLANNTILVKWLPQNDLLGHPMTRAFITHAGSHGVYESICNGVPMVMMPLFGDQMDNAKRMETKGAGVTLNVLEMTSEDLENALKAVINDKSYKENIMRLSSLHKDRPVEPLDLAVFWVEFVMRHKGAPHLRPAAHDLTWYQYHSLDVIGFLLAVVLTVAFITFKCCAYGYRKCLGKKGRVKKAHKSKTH
From the text: (§1) Microsomes from human lymphoblasts and insect cells (BTI-TN-5B1-4) both transfected with a vector containing human UGT1A1, UGT1A3, UGT1A4, UGT1A6, UGT1A9 and UGT2B15 complementary DNA (cDNA) and their negative control (microsomes from cells infected with wild-type vector) were obtained from Gentest Corp. (Woburn, Mass.). Microsomes from insect cells (SF-9) infected with a baculovirus containing human cDNA for UGT2B7 and their negative control were purchased from PanVera (Madison, Wis.).
(§2) For this purpose, dried samples were reconstituted with 0.2 ml of sodium phosphate buffer (0.1 M, pH 6.8) containing 1000 U of β-glucuronidase (type VII, from E. coli) and incubated overnight at 37° C. Reference samples containing no enzyme were treated identically.
(§3) The mobile phase consisted of 30% acetonitrile and 70% 50 mM sodium dihydrogen phosphate (pH adjusted to 4 with 8.5% ortho-phosphoric acid).

human UGT1A9 = molecular target: T2, human UGT1A9 (Homo sapiens, UniProt O60656); test: Epirubicin glucuronidation in microsomes expressing UGT1A9; conditions: Nd = not detectable
T2 sequence (O60656 26-530): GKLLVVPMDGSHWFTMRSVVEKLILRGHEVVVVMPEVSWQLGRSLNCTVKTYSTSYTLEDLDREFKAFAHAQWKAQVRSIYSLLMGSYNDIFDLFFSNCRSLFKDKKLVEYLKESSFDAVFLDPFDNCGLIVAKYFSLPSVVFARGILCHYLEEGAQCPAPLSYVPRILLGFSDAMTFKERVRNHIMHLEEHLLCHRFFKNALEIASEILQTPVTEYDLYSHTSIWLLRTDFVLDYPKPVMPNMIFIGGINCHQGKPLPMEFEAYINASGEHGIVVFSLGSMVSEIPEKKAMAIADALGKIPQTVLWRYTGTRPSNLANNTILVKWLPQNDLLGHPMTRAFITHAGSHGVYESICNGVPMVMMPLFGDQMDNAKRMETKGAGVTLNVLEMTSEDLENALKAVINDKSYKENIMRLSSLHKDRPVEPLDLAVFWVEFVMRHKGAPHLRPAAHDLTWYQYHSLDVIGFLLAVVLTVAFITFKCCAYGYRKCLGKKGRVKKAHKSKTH
From the text: as §1, §2, §3

human UGT1A3 = molecular target: T3, human UGT1A3 (Homo sapiens, UniProt P35503); test: Epirubicin glucuronidation in microsomes expressing UGT1A3; conditions: Nd = not detectable
T3 sequence (P35503 29-534): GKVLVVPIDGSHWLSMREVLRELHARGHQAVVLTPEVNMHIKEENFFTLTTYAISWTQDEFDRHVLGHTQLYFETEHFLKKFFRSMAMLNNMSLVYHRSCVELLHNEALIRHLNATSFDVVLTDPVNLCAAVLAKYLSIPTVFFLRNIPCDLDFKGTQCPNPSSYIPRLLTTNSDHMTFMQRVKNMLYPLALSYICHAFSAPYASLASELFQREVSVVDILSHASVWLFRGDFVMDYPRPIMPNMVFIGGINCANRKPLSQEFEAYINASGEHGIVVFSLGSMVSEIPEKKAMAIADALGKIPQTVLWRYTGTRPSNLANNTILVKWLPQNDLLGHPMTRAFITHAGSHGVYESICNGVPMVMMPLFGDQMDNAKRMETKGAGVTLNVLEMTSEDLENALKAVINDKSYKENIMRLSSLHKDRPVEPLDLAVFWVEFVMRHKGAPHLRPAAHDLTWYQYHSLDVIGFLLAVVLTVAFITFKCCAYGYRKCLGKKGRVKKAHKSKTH
From the text: as §1, §2, §3

human UGT2B15 = molecular target: T4, human UGT2B15 (Homo sapiens, UniProt P54855); test: Epirubicin glucuronidation in microsomes expressing UGT2B15; conditions: Nd = not detectable
T4 sequence (P54855 24-530): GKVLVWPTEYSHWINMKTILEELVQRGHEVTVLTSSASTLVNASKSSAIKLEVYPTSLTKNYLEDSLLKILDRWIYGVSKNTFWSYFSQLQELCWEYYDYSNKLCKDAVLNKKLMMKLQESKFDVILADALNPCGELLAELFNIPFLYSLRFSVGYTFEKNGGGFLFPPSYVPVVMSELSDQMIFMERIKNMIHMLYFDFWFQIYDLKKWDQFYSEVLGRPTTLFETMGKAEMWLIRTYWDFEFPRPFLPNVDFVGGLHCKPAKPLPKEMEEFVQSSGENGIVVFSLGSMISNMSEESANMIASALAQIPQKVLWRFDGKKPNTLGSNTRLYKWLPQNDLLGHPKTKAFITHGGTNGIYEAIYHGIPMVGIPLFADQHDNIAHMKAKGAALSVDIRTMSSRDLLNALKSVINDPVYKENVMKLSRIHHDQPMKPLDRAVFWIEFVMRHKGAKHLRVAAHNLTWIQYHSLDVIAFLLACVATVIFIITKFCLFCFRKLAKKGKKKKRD
From the text: as §1, §2, §3

[1] = cited from earlier work
human UGT1A6 = molecular target: T5, human UGT1A6 (Homo sapiens, UniProt P19224); test: Epirubicin glucuronidation in microsomes expressing UGT1A6; conditions: Nd = not detectable
T5 sequence (P19224 27-532): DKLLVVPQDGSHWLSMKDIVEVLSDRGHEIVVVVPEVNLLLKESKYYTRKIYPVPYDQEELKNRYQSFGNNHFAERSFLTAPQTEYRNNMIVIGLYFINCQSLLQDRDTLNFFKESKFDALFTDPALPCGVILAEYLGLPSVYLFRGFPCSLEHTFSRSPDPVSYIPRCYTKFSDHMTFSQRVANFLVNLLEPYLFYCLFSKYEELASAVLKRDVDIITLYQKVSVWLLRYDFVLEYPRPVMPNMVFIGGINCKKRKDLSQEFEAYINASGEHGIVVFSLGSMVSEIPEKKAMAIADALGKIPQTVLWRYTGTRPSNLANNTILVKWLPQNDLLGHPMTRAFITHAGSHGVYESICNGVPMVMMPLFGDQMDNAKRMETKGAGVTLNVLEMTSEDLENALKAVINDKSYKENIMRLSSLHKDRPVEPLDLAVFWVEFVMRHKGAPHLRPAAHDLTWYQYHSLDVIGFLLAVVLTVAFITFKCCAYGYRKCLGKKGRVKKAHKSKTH
From the text: as §1, §2, §3

human UGT1A4 = molecular target: T6, human UGT1A4 (Homo sapiens, UniProt P22310); test: Epirubicin glucuronidation in microsomes expressing UGT1A4; conditions: Nd = not detectable
T6 sequence (P22310 29-534): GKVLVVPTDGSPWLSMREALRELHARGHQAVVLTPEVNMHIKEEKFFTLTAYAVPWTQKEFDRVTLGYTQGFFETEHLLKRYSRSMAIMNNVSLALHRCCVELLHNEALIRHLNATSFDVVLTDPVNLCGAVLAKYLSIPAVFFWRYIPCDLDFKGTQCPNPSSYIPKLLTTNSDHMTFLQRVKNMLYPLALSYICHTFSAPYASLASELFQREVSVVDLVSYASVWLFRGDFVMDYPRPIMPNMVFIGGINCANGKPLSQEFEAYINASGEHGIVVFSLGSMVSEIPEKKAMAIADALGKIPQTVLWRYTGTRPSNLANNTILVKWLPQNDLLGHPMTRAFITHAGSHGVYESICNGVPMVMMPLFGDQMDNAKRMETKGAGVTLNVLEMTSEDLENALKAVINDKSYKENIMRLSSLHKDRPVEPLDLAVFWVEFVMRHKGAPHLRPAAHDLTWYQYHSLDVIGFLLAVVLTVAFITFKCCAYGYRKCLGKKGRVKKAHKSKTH
From the text: as §1, §2, §3

For COc1cccc2c1C(=O)c1c(O)c3c(c(O)c1C2=O)C[C@@](O)(C(=O)CO)C[C@@H]3O[C@H]1C[C@H](N)[C@@H](O)[C@H](C)O1 [Epirubicin, 4′-epi-doxorubicin], the “Formation rate of epirubicin glucuronide” value (human UGT1A1) was “No epirubicin glucuronidating activity”, the “Formation rate of epirubicin glucuronide” value (human UGT1A9) was “No epirubicin glucuronidating activity” and the “Formation rate of epirubicin glucuronide” value (human UGT1A3) was “No epirubicin glucuronidating activity”. For the same molecule, the “Formation rate of epirubicin glucuronide” value (human UGT2B15) was “No epirubicin glucuronidating activity”, the “Median half-life, first phase” value ([1]; 3-compartment model) was “about 3.2 minutes” and the “Median half-life, second phase” value ([1]; 3-compartment model) was roughly 1.2 h. The “Median half-life, third phase” value ([1]; 3-compartment model) was roughly 32 h, the “Fraction excreted in the urine” value ([1]; elimination primarily biliary) was “less than 15%” and the Total plasma clearance ([1]; human, in vivo) was “about 46 L/h/m^2”. For the same molecule, the “Formation rate of epirubicin glucuronide” value (human UGT1A6) was “No epirubicin glucuronidating activity” and the “Formation rate of epirubicin glucuronide” value (human UGT1A4) was “No epirubicin glucuronidating activity”.
